The results in this text go back to the supplement of paper PMC10883282.

± gives the standard deviation of the averaged measurements.

The subject of this test is G401. As to the kind of experiment: relative viability vs DMSO control (72 h) (fraction); higher = more viable cells. Summed up:
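After seeding at densities set for 80–90% confluence in 384-well plates, sarcoma cell lines waited 24 h before 2.5 µl of serially diluted compound was added. Source plates held 10 mM down to 0.0002 mM. Plates were incubated 72 h at 37 °C with 5% CO2, with 0.1% DMSO vehicle and a 5 µM positive control, and relative viability was taken from ATPLite as percent growth averaged over up to triplicate wells, with 1 set as full and 0 as none.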

Regarding `COc1c(OCCCN2CCOCC2)ccc2c1N=C(NC(=O)c1cnc(N)nc1)N1CCN=C21` [Copanlisib], the relative viability is, setting by setting: (0.00017 µM) 1.024 ± 0.0087; (0.00051 µM) 1 ± 0.024; (0.00152 µM) 0.959 ± 0.039; (0.00457 µM) 0.7934 ± 0.0059; (0.01372 µM) 0.702 ± 0.018; (0.04115 µM) 0.582 ± 0.033. Further, the relative viability was found to be 0.537 ± 0.037 (0.1235 µM); 0.499 ± 0.043 (0.3704 µM); 0.476 ± 0.047 (1.111 µM); 0.468 ± 0.02 (3.333 µM); 0.477 ± 0.044 (10 µM).

`CN1CCN(c2ccc3nc(-c4c(N)c5c(F)cccc5[nH]c4=O)[nH]c3c2)CC1` [Dovitinib] displayed a relative viability (0.00017 µM) of 1.02 ± 0.045; a relative viability (0.00051 µM) of 1.014 ± 0.0059; a relative viability (0.00152 µM) of 1.04 ± 0.021; a relative viability (0.00457 µM) of 1.018 ± 0.0017; a relative viability (0.01372 µM) of 1 ± 0.023; a relative viability (0.04115 µM) of 1.01 ± 0.051. The relative viability came to 0.966 ± 0.034 (0.1235 µM); 0.92 ± 0.019 (0.3704 µM); 0.632 ± 0.069 (1.111 µM); 0.256 ± 0.013 (3.333 µM); 0.13 ± 0.0053 (10 µM).

For `COCc1c(-c2cc3cc(C)cc(OC)c3s2)c2c(N)ncnn2c1CN1CCNC(=O)C1` [Rogaratinib], the relative viability is, setting by setting: (0.00017 µM) 1.05 ± 0.015; (0.00051 µM) 1.06 ± 0.037; (0.00152 µM) 1.02 ± 0.031; (0.00457 µM) 1.01 ± 0.011; (0.01372 µM) 1.018 ± 0.0054; (0.04115 µM) 0.967 ± 0.038. Moreover, the relative viability is, setting by setting: (0.1235 µM) 0.8878 ± 0.0073; (0.3704 µM) 0.68 ± 0.015; (1.111 µM) 0.592 ± 0.024; (3.333 µM) 0.532 ± 0.043; (10 µM) 0.375 ± 0.0068.

Consider `CN1CCC(COc2cnc(-c3cccc(Cn4nc(-c5cccc(C#N)c5)ccc4=O)c3)nc2)CC1` [Tepotinib], for which the relative viability runs as follows: (0.00017 µM) 1.02 ± 0.014; (0.00051 µM) 1.02 ± 0.015; (0.00152 µM) 1.012 ± 0.01; (0.00457 µM) 1.003 ± 0.0083; (0.01372 µM) 1.04 ± 0.018; (0.04115 µM) 1.04 ± 0.057. Besides, the relative viability is 1.02 ± 0.013 (0.1235 µM); 1.01 ± 0.029 (0.3704 µM); 1 ± 0.015 (1.111 µM); 0.9287 ± 0.0054 (3.333 µM); 0.787 ± 0.02 (10 µM).
